Measured values from ChEMBL document CHEMBL4376820, “Homodimeric Tobramycin Adjuvant Repurposes Novobiocin as an Effective Antibacterial Agent against Gram-Negative Bacteria” (J Med Chem, 2019).
Activity calls are given as the source filed them. The rule behind the calls is not given here.

How the values were obtained:
Pseudomonas aeruginosa [1] = experiment: Synergistic antibacterial activity against wild type Pseudomonas aeruginosa PAO1 assessed as potentiation of minocycline-induced antibacterial effect incubated for 18 hrs by checkerboard assay; assay type: functional, organism-based
Pseudomonas aeruginosa [2] = experiment: Synergistic antibacterial activity against wild type Pseudomonas aeruginosa PAO1 assessed as potentiation of piperacillin-induced antibacterial effect incubated for 18 hrs by checkerboard assay; assay type: functional, organism-based
Pseudomonas aeruginosa [3] = experiment: Synergistic antibacterial activity against wild type Pseudomonas aeruginosa PAO1 assessed as potentiation of rifampicin-induced antibacterial effect incubated for 18 hrs by checkerboard assay relative to rifampicin alone; assay type: functional
Pseudomonas aeruginosa [4] = experiment: Synergistic antibacterial activity against wild type Pseudomonas aeruginosa PAO1 assessed as potentiation of cefotaxime-induced antibacterial effect incubated for 18 hrs by checkerboard assay relative to cefotaxime alone; assay type: functional
Pseudomonas aeruginosa [5] = experiment: Synergistic antibacterial activity against wild type Pseudomonas aeruginosa PAO1 assessed as potentiation of ceftazidime-induced antibacterial effect incubated for 18 hrs by checkerboard assay relative to ceftazidime alone; assay type: functional
Pseudomonas aeruginosa [6] = experiment: Synergistic antibacterial activity against wild type Pseudomonas aeruginosa PAO1 assessed as potentiation of clindamycin-induced antibacterial effect incubated for 18 hrs by checkerboard assay relative to clindamycin alone; assay type: functional
Pseudomonas aeruginosa [7] = experiment: Synergistic antibacterial activity against wild type Pseudomonas aeruginosa PAO1 assessed as potentiation of piperacillin-induced antibacterial effect incubated for 18 hrs by checkerboard assay relative to piperacillin alone; assay type: functional
Pseudomonas aeruginosa [8] = experiment: Potentiation of novobiocin-induced antibacterial activity against wild type Pseudomonas aeruginosa PAO1 assessed as novobiocin MIC at <= 7.1 uM incubated for 18 hrs by CLSI protocol based assay (reference value: 512 ug/ml); assay type: functional; conditions: PAO1, 18 h
Pseudomonas aeruginosa [9] = experiment: Potentiation of novobiocin-induced antibacterial activity against carbapenem-resistant Pseudomonas aeruginosa 259-96918 clinical isolate assessed as novobiocin MIC at <= 7.1 uM incubated for 18 hrs by CLSI protocol based assay (reference value: 512 ug/ml); assay type: functional; conditions: 259-96918, 18 h
Pseudomonas aeruginosa [10] = experiment: Potentiation of novobiocin-induced antibacterial activity against carbapenem-resistant Pseudomonas aeruginosa 264-104354 clinical isolate assessed as novobiocin MIC at <= 7.1 uM incubated for 18 hrs by CLSI protocol based assay (reference value: 512 ug/ml); assay type: functional; conditions: 264-104354, 18 h
Pseudomonas aeruginosa [11] = experiment: Potentiation of novobiocin-induced antibacterial activity against carbapenem-resistant Pseudomonas aeruginosa 100036 clinical isolate assessed as novobiocin MIC at <= 7.1 uM incubated for 18 hrs by CLSI protocol based assay (reference value: 1024 ug/ml); assay type: functional; conditions: Pseudomonas aeruginosa, 100036, 18 h
Escherichia coli [12] = experiment: Potentiation of novobiocin-induced antibacterial activity against colistin-resistant Escherichia coli 94393 clinical isolate harboring mcr-1 gene assessed as novobiocin MIC at <= 7.1 uM incubated for 18 hrs by CLSI protocol based assay (reference value: 128 ug/ml); assay type: functional; conditions: Escherichia coli, 94393, 18 h
Escherichia coli [13] = experiment: Potentiation of novobiocin-induced antibacterial activity against colistin-resistant Escherichia coli 94474 clinical isolate harboring mcr-1 gene assessed as novobiocin MIC at <= 7.1 uM incubated for 18 hrs by CLSI protocol based assay (reference value: 256 ug/ml); assay type: functional; conditions: Escherichia coli, 94474, 18 h
Klebsiella pneumoniae = experiment: Potentiation of novobiocin-induced antibacterial activity against colistin-resistant Klebsiella pneumoniae 113250 clinical isolate assessed as novobiocin MIC at <= 7.1 uM incubated for 18 hrs by CLSI protocol based assay (reference value: 512 ug/ml); assay type: functional; conditions: Klebsiella pneumoniae, 113250, 18 h
Enterobacter cloacae [14] = experiment: Potentiation of novobiocin-induced antibacterial activity against Enterobacter cloacae 117029 clinical solate assessed as novobiocin MIC at <= 7.1 uM incubated for 18 hrs by CLSI protocol based assay (reference value: 1024 ug/ml); assay type: functional; conditions: Enterobacter cloacae, 117029, 18 h
Pseudomonas aeruginosa [15] = experiment: Antibacterial activity against carbapenem-resistant Pseudomonas aeruginosa 100036 clinical isolate incubated for 18 hrs by CLSI protocol based assay; assay type: functional; conditions: Pseudomonas aeruginosa, 100036, 18 h
Acinetobacter baumannii [16] = experiment: Antibacterial activity against Acinetobacter baumannii 027 clinical incubated for 18 hrs by CLSI protocol based assay; assay type: functional; conditions: Acinetobacter baumannii, 027, 18 h
Escherichia coli [17] = experiment: Antibacterial activity against colistin-resistant Escherichia coli 94393 clinical isolate harboring mcr-1 gene incubated for 18 hrs by CLSI protocol based assay; assay type: functional; conditions: Escherichia coli, 94393, 18 h
Enterobacter cloacae [18] = experiment: Antibacterial activity against Enterobacter cloacae 117029 clinical solate incubated for 18 hrs by CLSI protocol based assay; assay type: functional; conditions: Enterobacter cloacae, 117029, 18 h
Pseudomonas aeruginosa [19] = experiment: Potentiation of novobiocin-induced antibacterial activity against carbapenem-resistant Pseudomonas aeruginosa 264-104354 clinical isolate assessed as fold reduction in novobiocin MIC incubated for 18 hrs by CLSI protocol based assay relative to novobiocin MIC; assay type: functional
Pseudomonas aeruginosa [20] = experiment: Potentiation of novobiocin-induced antibacterial activity against carbapenem and colistin-resistant Pseudomonas aeruginosa 114228 clinical isolate assessed as fold reduction in novobiocin MIC incubated for 18 hrs by CLSI protocol based assay relative to novobiocin MIC; assay type: functional
Acinetobacter baumannii [21] = experiment: Potentiation of novobiocin-induced antibacterial activity against Acinetobacter baumannii 110193 clinical isolate assessed as fold reduction in novobiocin MIC incubated for 18 hrs by CLSI protocol based assay relative to novobiocin MIC; assay type: functional
Escherichia coli [22] = experiment: Potentiation of novobiocin-induced antibacterial activity against wild type Escherichia coli ATCC 25922 assessed as fold reduction in novobiocin MIC incubated for 18 hrs by CLSI protocol based assay relative to novobiocin MIC; assay type: functional
Pseudomonas aeruginosa [23] = experiment: Potentiation of novobiocin-induced antibacterial activity against mexAB-oprM mutant deficient Pseudomonas aeruginosa PAO200 assessed as novobiocin MIC at <= 7.1 uM incubated for 18 hrs by CLSI protocol based assay (reference value: 32 ug/ml); assay type: functional; conditions: PAO200, 18 h
Pseudomonas aeruginosa [24] = experiment: Potentiation of novobiocin-induced antibacterial activity against mexAB-oprM/mexCD-oprJ/mexEF-oprN/mexJK/mexXY/opmH mutant deficient Pseudomonas aeruginosa PAO750 assessed as novobiocin MIC at <= 7.1 uM incubated for 18 hrs by CLSI protocol based assay (reference value: 32 ug/ml); assay type: functional; conditions: PAO750, 18 h
Pseudomonas aeruginosa [25] = experiment: Bactericidal activity against Pseudomonas aeruginosa PAO1 assessed as log reduction in colony forming units per ml at 7.1 uM in LB media after 24 hrs in presence of 50.4 uM novobiocin by time-kill assay; assay type: functional
Pseudomonas aeruginosa [26] = experiment: Bactericidal activity against Pseudomonas aeruginosa PAO1 assessed as log reduction in colony forming units per ml at 7.1 uM in LB media after 24 hrs in by time-kill assay; assay type: functional
Escherichia coli [27] = experiment: Bactericidal activity against Escherichia coli ATCC […] assessed as log reduction in colony forming units per ml at 7.1 uM in LB media after 6 hrs in presence of 50.4 uM novobiocin by time-kill assay; assay type: functional
Acinetobacter baumannii [28] = experiment: Antibacterial activity against wild type Acinetobacter baumannii ATCC 17978 assessed as resistant development at 7.1 uM measured after 3 days of passaging in presence of novobiocin by microbroth dilution method relative to control; assay type: functional
Acinetobacter baumannii [29] = experiment: Antibacterial activity against wild type Acinetobacter baumannii ATCC 17978 assessed as resistant development at 7.1 uM measured after 5 days of passaging in presence of novobiocin by microbroth dilution method relative to control; assay type: functional
Acinetobacter baumannii [30] = experiment: Potentiation of novobiocin-induced antibacterial activity against novobiocin and colistin resistant Acinetobacter baumannii ATCC 17978 mutant generated from seven serial passages by checkerboard assay; assay type: functional, organism-based

SMILES: NC[C@H]1O[C@H](O[C@H]2[C@H](OCCCCc3cn(CCCCO[C@@H]4[C@@H](O[C@H]5O[C@H](CO)[C@@H](O)[C@H](N)[C@H]5O)[C@H](N)C[C@H](N)[C@H]4O[C@H]4O[C@H](CN)[C@@H](O)C[C@H]4N)nn3)[C@@H](O[C@H]3O[C@H](CO)[C@@H](O)[C@H](N)[C@H]3O)[C@H](N)C[C@@H]2N)[C@H](N)C[C@@H]1O.O=C(O)C(F)(F)F.O=C(O)C(F)(F)F.O=C(O)C(F)(F)F.O=C(O)C(F)(F)F.O=C(O)C(F)(F)F.O=C(O)C(F)(F)F.O=C(O)C(F)(F)F.O=C(O)C(F)(F)F.O=C(O)C(F)(F)F.O=C(O)C(F)(F)F
- Activity (Pseudomonas aeruginosa [1]): Dose-dependent effect
- Activity (Pseudomonas aeruginosa [2]): Dose-dependent effect
- fold change (FC) (Pseudomonas aeruginosa [3]): 4 - 128
- fold change (FC) (Pseudomonas aeruginosa [4]): 4 - 128
- fold change (FC) (Pseudomonas aeruginosa [5]): 4 - 128
- fold change (FC) (Pseudomonas aeruginosa [6]): 4 - 128
- fold change (FC) (Pseudomonas aeruginosa [7]): 4 - 128
- MIC (Pseudomonas aeruginosa [8]): 4 µg/mL
- MIC (Pseudomonas aeruginosa [9]): 8 µg/mL
- MIC (Pseudomonas aeruginosa [10]): 8 µg/mL
- MIC (Pseudomonas aeruginosa [11]): 8 µg/mL
- MIC (Escherichia coli [12]): 2 µg/mL
- MIC (Escherichia coli [13]): 16 µg/mL
- MIC (Klebsiella pneumoniae): 16 µg/mL
- MIC (Enterobacter cloacae [14]): 8 µg/mL
- MIC (Pseudomonas aeruginosa [15]): > 128 µg/mL
- MIC (Acinetobacter baumannii [16]): > 128 µg/mL
- MIC (Escherichia coli [17]): > 128 µg/mL
- MIC (Enterobacter cloacae [18]): > 128 µg/mL
- Ratio (Pseudomonas aeruginosa [19]): 64
- Ratio (Pseudomonas aeruginosa [20]): 32
- Ratio (Acinetobacter baumannii [21]): 256
- Ratio (Escherichia coli [22]): 32
- MIC (Pseudomonas aeruginosa [23]): 0.125 µg/mL
- MIC (Pseudomonas aeruginosa [24]): 0.125 µg/mL
- Activity (Pseudomonas aeruginosa [25]): -9.48 CFU/ml
- Activity (Pseudomonas aeruginosa [26]): -3.68 CFU/ml
- Activity (Escherichia coli [27]): -5 CFU/ml
- fold change (FC) (Acinetobacter baumannii [28]): 4
- fold change (FC) (Acinetobacter baumannii [29]): 16
- Activity (Acinetobacter baumannii [30]): inactive
